Values quoted from earlier work, collected in patent US6551611B2, “Hormone replacement therapy method” (Schering Aktiengesellschaft, priority 1995, dated 2003).

Settings: oral administration

**Q.** Which “bioavailability of estradiol orally, average” value does the source give for `C[C@]12CC[C@@H]3c4ccc(O)cc4CC[C@H]3[C@@H]1CC[C@@H]2O` [estradiol] here?
**A.** The value was 5 % of the oral dose.
